# Assays:
# [1] = system: acetylation of tubulin (HDAC6 substrate); assay: Western blot of tubulin acetylation in SK-N-BE(2)C cells; type: cell-based
# Method: (§1) Western blot analysis of SMC3, tubulin and histone H3 acetylation: For the analysis of protein acetylation, 1.5–2×10^6 SK‐N‐BE(2)‐C cells were seeded per 10 cm dish and allowed to adhere overnight. Cells were treated for 18 h (Figure 4B) or 6 h (Figure 4E) with inhibitors at concentrations indicated in the respective figure. Cells were lysed in SDS lysis buffer (2 % w/v SDS, 10 % v/v glycerol, 1 mM DTT, 62.5 mM TRIS, pH 6.8) and proteins were denatured at 95 °C for 10 min. Cell debris was removed by centrifugation (15 000 g for 10 min at 12 °C). Western blot analysis was performed as described before.7a The following antibodies were used: anti‐acetylated tubulin (6‐11B‐1; Sigma) anti‐acetylated SMC3 (kindly provided by Katsuhiko Shirahige, Institute for Molecular and Cellular Biosciences, University of Tokyo, Japan),35 anti acetylated histone H3 (#06‐911, Millipore), anti histone H3 (#9715, Cell Signaling Technology) and anti β‐actin (#5441, Sigma‐Aldrich).
# [2] = system: acetylation of histone H3 (HDAC1 substrate); assay: Western blot of histone H3 acetylation in SK-N-BE(2)C cells; type: cell-based
# Method: as §1
smiles,measurement,setting,value
O=C(NO)c1ccc(Cc2c[nH]c3ccc(C(=O)NO)cc23)cc1 [Compound 3d],"acetylation of tubulin (HDAC6 substrate), Western blot",[1],increases acetylation
same,"acetylation of histone H3 (HDAC1 substrate), Western blot",[2],significantly weaker effects

# — PMC7335359, “Design and Synthesis of Dihydroxamic Acids as HDAC6/8/10 Inhibitors” (Chemmedchem, 2020)
